Assay results from patent US11800867B2, “Methods of repelling biting arthropods, reducing pathogen spread and treating arthropod infestation” (priority 2016, dated 2023).
“And” between values parts separate entries of the source, which are not always exact repeats. Identical values can stand only once.

Key:
Assay in all cases: Treated filter paper knockdown (KD) and mortality trial (Example 4)
Type in all cases: in vivo
[1] = test system: biting midges (Culicoides sp.); details: Nootkatone 1% in ethanol on filter paper
Experimental: (§1) A laboratory trial was conducted to assess the efficacy of nootkatone applied to filter paper against aphids (Schizaphis gramium), dust mites (Dermatophagoides sp.), termites (Reticulitermes flavipes), deer ticks (Ixodes scapularis), biting midges (Culicoides sp.), fire ants (Solenopsis invicta), and mosquitoes (Aedes aegypti and Culex), in terms of knockdown (KD) and mortality. One concentration (1% in ethanol) of nootkatone was assessed for most species, but three concentrations (0.25%, 0.5%, and 1% in ethanol) were assessed for mosquitoes. A negative control group, consisting of filter paper treated with ethanol, was also assessed for comparison purposes for each species.
(§2) Test systems were introduced to treated filter paper, allowed to dry, and then introduced into treatment chamber, where treated arthropods were monitored at intervals up to 72 hours. If 100% mortality was obtained prior to 72 hours, the individual study was halted.
(§3) Midges and mosquitoes—5 replicates of 10 insects per treatment were tested. Inverted 10 ounce (295 ml) clear plastic cups with a 0.5 inch (1.27 cm) hole burned into the center of the bottom, and with the sides coated with Fluon® was used at the treatment containers. The bottoms of the containers consisted of Petri dish lids 3.54 inches (9.0 cm) in diameter lined with a treated filter paper circle the same diameter. The cup was placed over the filter paper in the lid and both were secured in place using 2 rubber bands. The insects were introduced through the hole in the cup, and a plastic disc was placed over the opening to prevent escapes.
(§4) Readings were discontinued if treated mortality reaches […], or control mortality exceeds 20%.

[2] = test system: Yellow Fever mosquito (Aedes aegypti)
Experimental: as §1, §2, §3, §4

[3] = test system: Southern house mosquito (Culex)
Experimental: as §1, §2, §3, §4

[4] = Nootkatone 0.25% in ethanol on filter paper, 30 minutes post introduction
[5] = Nootkatone 0.25% in ethanol on filter paper, 1 hour post introduction
[6] = Nootkatone 0.25% in ethanol on filter paper, 4 hours post introduction
[7] = Nootkatone 0.25% in ethanol on filter paper, 8 hours post introduction
[8] = Nootkatone 0.25% in ethanol on filter paper, 24 hours post introduction
[9] = Nootkatone 0.25% in ethanol on filter paper, 48 hours post introduction
[10] = Nootkatone 0.25% in ethanol on filter paper, 72 hours post introduction
[11] = Nootkatone 0.5% in ethanol on filter paper, 30 minutes post introduction
[12] = Nootkatone 0.5% in ethanol on filter paper, 1 hour post introduction
[13] = Nootkatone 0.5% in ethanol on filter paper, 4 hours post introduction
[14] = Nootkatone 0.5% in ethanol on filter paper, 8 hours post introduction
[15] = Nootkatone 0.5% in ethanol on filter paper, 24 hours post introduction
[16] = Nootkatone 0.5% in ethanol on filter paper, 48 hours post introduction
[17] = Nootkatone 0.5% in ethanol on filter paper, 72 hours post introduction
[18] = Nootkatone 1% in ethanol on filter paper, 30 minutes post introduction
[19] = Nootkatone 1% in ethanol on filter paper, 1 hour post introduction
[20] = Nootkatone 1% in ethanol on filter paper, 4 hours post introduction
[21] = Nootkatone 1% in ethanol on filter paper, 8 hours post introduction
[22] = Nootkatone 1% in ethanol on filter paper, 24 hours post introduction
[23] = Nootkatone 1% in ethanol on filter paper, 48 hours post introduction
[24] = Nootkatone 1% in ethanol on filter paper, 72 hours post introduction

Structure (SMILES): C=C(C)[C@@H]1CCC2=CC(=O)C[C@@H](C)[C@]2(C)C1 [Nootkatone, nootkatone]
- Time required for greater than 90% killing [1]: 24 h
- Means Affected ([1]; 30 minutes post introduction): 100.0%
- Means Dead ([1]; 30 minutes post introduction): 0.0%
- Means KD ([1]; 30 minutes post introduction): 100.0%
- Means Affected ([1]; 1 hour post introduction): 100.0%
- Means Dead ([1]; 1 hour post introduction): 1.8%
- Means KD ([1]; 1 hour post introduction): 98.2%
- Means Affected ([1]; 4 hours post introduction): 100.0%
- Means Dead ([1]; 4 hours post introduction): 78.7%
- Means KD ([1]; 4 hours post introduction): 21.3%
- Means Affected ([1]; 24 hours post introduction): 100.0%
- Means Dead ([1]; 24 hours post introduction): 100%
- Means KD ([1]; 24 hours post introduction): 0.0%
- Means Dead ([1]; 24 hours post introduction, listed as nootkatone): 100%
- Means Affected [2, 4]: 17.8%
- Means Dead [2, 4]: 17.8%
- Means KD [2, 4]: 0.0%
- Means Affected [2, 5]: 20.0%
- Means Dead [2, 5]: 20.0%
- Means KD [2, 5]: 0.0%
- Means Affected [2, 6]: 20.0%
- Means Dead [2, 6]: 20.0%
- Means KD [2, 6]: 0.0%
- Means Affected [2, 7]: 17.8%
- Means Dead [2, 7]: 15.6%
- Means KD [2, 7]: 2.2%
- Means Affected [2, 8]: 17.8%
- Means Dead [2, 8]: 13.3%
- Means KD [2, 8]: 4.4%
- Means Affected [2, 9]: 17.6%
- Means Dead [2, 9]: 15.6%
- Means KD [2, 9]: 2.0%
- Means Affected [2, 10]: 26.0%
- Means Dead [2, 10]: 17.6%
- Means KD [2, 10]: 8.4%
- Means Affected [2, 11]: 0.0%
- Means Dead [2, 11]: 0.0%
- Means KD [2, 11]: 0.0%
- Means Affected [2, 12]: 0.0%
- Means Dead [2, 12]: 0.0%
- Means KD [2, 12]: 0.0%
- Means Affected [2, 13]: 5.3%
- Means Dead [2, 13]: 0.0%
- Means KD [2, 13]: 5.3%
- Means Affected [2, 14]: 29.9%
- Means Dead [2, 14]: 0.0%
- Means KD [2, 14]: 29.9%
- Means Affected [2, 15]: 83.1%
- Means Dead [2, 15]: 22.5%
- Means KD [2, 15]: 60.6%
- Means Affected [2, 16]: 87.1%
- Means Dead [2, 16]: 72.0%
- Means KD [2, 16]: 15.1%
- Means Affected [2, 17]: 100.0%
- Means Dead [2, 17]: 92% and 92.5%
- Means KD [2, 17]: 7.5%
- Means Affected [2, 18]: 0.0%
- Means Dead [2, 18]: 0.0%
- Means KD [2, 18]: 0.0%
- Means Affected [2, 19]: 1.8%
- Means Dead [2, 19]: 0.0%
- Means KD [2, 19]: 1.8%
- Means Affected [2, 20]: 46.9%
- Means Dead [2, 20]: 0.0%
- Means KD [2, 20]: 46.9%
- Means Affected [2, 21]: 80.4%
- Means Dead [2, 21]: 0.0%
- Means KD [2, 21]: 80.4%
- Means Affected [2, 22]: 84.0%
- Means Dead [2, 22]: 65.5%
- Means KD [2, 22]: 18.5%
- Means Affected [2, 23]: 90.0%
- Means Dead [2, 23]: 80.4%
- Means KD [2, 23]: 9.6%
- Means Affected [2, 24]: 94.0%
- Means Dead [2, 24]: 92%
- Means KD [2, 24]: 2.0%
- Means Affected [3, 4]: 24.0%
- Means Dead [3, 4]: 0.0%
- Means KD [3, 4]: 24.0%
- Means Affected [3, 5]: 22.0%
- Means Dead [3, 5]: 0.0%
- Means KD [3, 5]: 22.0%
- Means Affected [3, 6]: 32.2%
- Means Dead [3, 6]: 0.0%
- Means KD [3, 6]: 32.2%
- Means Affected [3, 7]: 18.0%
- Means Dead [3, 7]: 0.0%
- Means KD [3, 7]: 18.0%
- Means Affected [3, 8]: 26.2%
- Means Dead [3, 8]: 12.2%
- Means KD [3, 8]: 14.0%
- Means Affected [3, 9]: 75.6%
- Means Dead [3, 9]: 61.3%
- Means KD [3, 9]: 14.2%
- Means Affected [3, 10]: 76.0%
- Means Dead [3, 10]: 74.0%
- Means KD [3, 10]: 2.0%
- Means Affected [3, 11]: 0.0%
- Means Dead [3, 11]: 0.0%
- Means KD [3, 11]: 0.0%
- Means Affected [3, 12]: 2.5%
- Means Dead [3, 12]: 0.0%
- Means KD [3, 12]: 2.5%
- Means Affected [3, 13]: 4.0%
- Means Dead [3, 13]: 0.0%
- Means KD [3, 13]: 4.0%
- Means Affected [3, 14]: 4.0%
- Means Dead [3, 14]: 0.0%
- Means KD [3, 14]: 4.0%
- Means Affected [3, 15]: 29.0%
- Means Dead [3, 15]: 10.5%
- Means KD [3, 15]: 18.5%
- Means Affected [3, 16]: 72.0%
- Means Dead [3, 16]: 49.0%
- Means KD [3, 16]: 23.0%
- Means Affected [3, 17]: 82.0%
- Means Dead [3, 17]: 82%
- Means KD [3, 17]: 0.0%
- Means Affected [3, 18]: 2.2%
- Means Dead [3, 18]: 0.0%
- Means KD [3, 18]: 2.2%
- Means Affected [3, 19]: 52.2%
- Means Dead [3, 19]: 0.0%
- Means KD [3, 19]: 52.2%
- Means Affected [3, 20]: 83.7%
- Means Dead [3, 20]: 0.0%
- Means KD [3, 20]: 83.7%
- Means Affected [3, 21]: 92.0%
- Means Dead [3, 21]: 13.1%
- Means KD [3, 21]: 78.9%
- Means Affected [3, 22]: 100.0%
- Means Dead [3, 22]: 97.8%
- Means KD [3, 22]: 2.2%
- Means Affected [3, 23]: 100.0%
- Means Dead [3, 23]: 100.0%
- Means KD [3, 23]: 0.0%
- Means Affected [3, 24]: 100.0%
- Means Dead [3, 24]: 100%
- Means KD [3, 24]: 0.0%
